{
  "source": "patent US20220091133A1",
  "about": "“METHODS AND ASSAYS FOR IMMUNE PHENOTYPING” (Washington University, priority 2020, published 2022)",
  "key": {"[1]": {"test": "Enzyme-linked immunosorbent assays for plasma type I IFN levels (Example 5)", "type": "in vivo, human", "conditions": "plasma of critically ill COVID-19 patient"}, "[2]": {"tested_on": "fungal sepsis", "conditions": "in vivo; cited from earlier work"}, "[3]": {"tested_on": "diluted whole blood (myeloid cell TNF-α production)", "test": "Whole blood ELISpot, LPS-stimulated TNF-α production (Example 2)", "type": "cell-based, human", "method": "Innate and adaptive immune function was assessed using ELISpot analysis by measurement of the production of IFN-γ and TNF-α in ex vivo-stimulated cells following overnight culture. Capture Ab precoated 96-well polyvinylidene difluoride-backed strip plates were used for single color enzymatic assays (ImmunoSpot; Cellular Technology [CTL], Cleveland, Ohio) for detection of human IFN-γ and TNF-α. ELISpot culture procedure was followed as directed using instructions from the ELISpot kit. Samples were run in duplicate for each test condition. Plates were prepared with stimulant and were incubated at 37° C. and 5% CO2 for 30 min prior to plating cells. Identical conditions were prepared for comparison of whole blood assay to PBMC assay, and culture media alone was used as a negative control. […] PBMCs were plated into wells in quantities of 2.5×10^4 cells per well for IFN-γ and 2.5×10^3 cells per well for TNF-α. […]\nSamples were scanned, analyzed, and quality controlled for spot count, spot area, and TWI using a Cellular Technology series 6 ImmunoSpot Universal Analyzer with ImmunoSpot 7.0 professional software (Cellular Technology Analyzers, Shaker Heights, Ohio). […]\nThe number of cytokine-secreting cells present in each ELISpot well is referred to as spot-forming units (SFU) and is reported in two distinct ways. […] The number of lymphocytes in each well was determined based upon the absolute lymphocyte count as measured by the patients' complete blood count. For ELISpot studies involving PBMCs, flow cytometry was performed on the PBMC fraction, and the number of lymphocytes, monocytes, and residual neutrophils were determined. […] Samples were acquired on FACScan (Becton Dickenson, Franklin Lakes, N.J.) with a five-color modification (CyTek Biosciences, Fremont, Calif.) and analyzed using FlowJo 10.2 (FlowJo, Ashland, Oreg.) as previously described (28). […]"}, "[4]": {"tested_on": "PBMCs (TNF-α-producing cells)", "test": "ELISpot, lipopolysaccharide-stimulated TNF-α in patient PBMCs before and after IL-7 therapy (Example 5)", "type": "in vivo, human", "conditions": "concomitant with initiation of IL-7 treatment"}, "[5]": {"tested_on": "T cells (IFN-γ production)", "test": "IFN-γ ELISPOT on patient PBMCs before and during IL-7 therapy (Example 3)", "type": "in vivo, human", "conditions": "anti-CD3/anti-CD28 ex vivo stimulation, before vs during IL-7 therapy", "method": "The effect of IL-7 in terms of improving the patient's T cell function was evaluated by an ex vivo stimulation assay using anti-CD3 and anti-CD28 antibodies (BioLegend, San Diego, Calif., USA) on an IFN-γ ELISPOT assay (Cellular Technologies Limited, Shaker Heights, Ohio, USA), which was performed as previously described."}, "[6]": {"tested_on": "PBMCs (monocyte TNF-α production)", "type": "cell-based, human"}, "[7]": {"tested_on": "lymphopenia in COVID-19", "conditions": "preliminary studies, reference 24; cited from earlier work"}, "[8]": {"tested_on": "invasive fungal soft tissue infection (Trichosporon asahii, Fusarium, Saksenaea)", "test": "IL-7 immunotherapy in a patient with intractable fungal wound sepsis (clinical course, lymphocyte count)", "type": "in vivo, human", "method": "Twenty-four hours later, the dosage was increased to 10 μg/kg and continued every 3-4 days for 7 doses. […] As illustrated by serial pictures of the wound, the most notable change following initiation of IL-7 was to slow the progression of the invasive soft tissue necrosis (FIG. 28B, green arrows).\nIn addition to decreased infectious spread and fungal proliferation, with improved wound healing and healthier-appearing tissue margins, clinical indicators of severity of disease improved within days of IL-7 treatment initiation with improvement of the fever curve, tachycardia, and tachypnea (FIG. 30). Laboratory evidence of resolution of the fungal invasion included progressive decreases in total white blood cell count and increasing absolute lymphocyte counts (FIG. 28A). The patient's absolute lymphocyte count increased >6-fold from a low of 600 lymphocytes/μL to >4000 lymphocytes/μL (upper limit of normal for absolute lymphocyte counts is 3500). Of note, the increase in the patient's absolute lymphocyte count was likely due to both the effect of IL-7 in inducing lymphocyte proliferation and to the resolution of the fungal infection."}, "[9]": {"tested_on": "PBMCs (T cell IFN-γ production)", "type": "cell-based, human"}},
  "data": [
    {"substance": "IL-7: recombinant human IL-7, immunoadjuvant and potent T cell activator; R&D Systems ex vivo, RevImmune for patients", "values": [
      {"measurement": "IFN-α (all subtypes) plasma concentration", "setting": "[1]; Post IL-7, Day 12", "result": "Undetectable"},
      {"measurement": "IFN-β plasma concentration", "setting": "[1]; Post IL-7, Day 12", "result": 130, "unit": "pg/mL"},
      {"measurement": "IFN-α (all subtypes) plasma concentration", "setting": "[1]; Post IL-7, Day 21", "result": "Undetectable"},
      {"measurement": "IFN-β plasma concentration", "setting": "[1]; Post IL-7, Day 21", "result": 4.1, "unit": "pg/mL"},
      {"measurement": "survival in a 2-hit animal model of fungal sepsis", "setting": "[2]", "result": "increase survival"},
      {"measurement": "change in TNF-α SFUs with IL-7", "setting": "[3]; CINS", "result": "no change"},
      {"measurement": "change in TNF-α SFUs with IL-7", "setting": "[3]; healthy subjects, p<0.01", "result": "significant decrease"},
      {"measurement": "effect of IL-7 on the number of TNF-α-producing cells", "setting": "[3]; septic patients, LPS + IL-7", "result": "does not increase"},
      {"measurement": "increase in the number of TNF-α-producing cells", "setting": "[4]", "result": "multifold increases"},
      {"measurement": "increase in the proportion of activated, IFN-γ-producing T cells from baseline", "setting": "[5]", "result": 1.4, "unit": "fold"},
      {"measurement": "mean increase in LPS-induced TNF-α-producing cells after IL-7 coincubation", "setting": "[6]; COVID-19 patient PBMCs, LPS + IL-7, not statistically significant", "result": 101, "unit": "%"},
      {"measurement": "effect of IL-7 on monocyte TNF-α production", "setting": "[6]; COVID-19 patients, LPS vs LPS + IL-7, n=25", "result": "did not increase"},
      {"measurement": "increase of ALCs in COVID-19 disease patients treated with IL-7", "setting": "[7]", "result": "two- to three-fold"},
      {"measurement": "tolerability of IL-7 in COVID-19 disease patients", "setting": "[7]", "result": "well tolerated"},
      {"measurement": "tolerability of IL-7 test dose", "setting": "[8]; 3 μg/kg ideal body weight intramuscularly, day 59 postinjury", "result": "well tolerated"},
      {"measurement": "onset of significant improvement of clinical status after initiation of IL-7", "setting": "[8]; 10 μg/kg every 3-4 days for 7 doses after test dose", "result": "4 to 7", "unit": "days"},
      {"measurement": "definitive closure of open wounds", "setting": "[8]; after resolution of wound fungal infection, >700 cm^2", "result": "> 90", "unit": "%"},
      {"measurement": "absolute lymphocyte count reached", "setting": "[8]; from a low of 600 lymphocytes/μL, upper limit of normal 3500", "result": "> 4000", "unit": "lymphocytes/μL"},
      {"measurement": "increase of absolute lymphocyte count", "setting": "[8]; fungal wound sepsis patient on IL-7", "result": "> 6", "unit": "fold"},
      {"measurement": "mean number of IFN-γ-producing T cells following ex vivo administration of IL-7", "setting": "[9]; COVID-19 patient PBMCs, anti-CD3/anti-CD28 + IL-7 50 ng/mL overnight, control without IL-7 101±21, P<0.0001", "result": "201±36"},
      {"measurement": "increase of IFN-γ production of stimulated T cells by ex vivo IL-7", "setting": "[9]; COVID-19 patients, ELISpot", "result": "~2", "unit": "fold"},
      {"measurement": "effect of IL-7 to increase the number of IFN-γ-producing T cells", "setting": "[9]; septic and CINS patients", "result": "also observed"}
    ]}
  ]
}
